# System: rats
# Assay: Escape reaction latency after zytisin with or without serum
# Assay type: in vivo, rat
# Protocol: During the formation and the long-term maintenance of information a significant role is attributed to H-cholino-ceptive mechanisms. 30 animals who were taught for five days how to dive under a “bell” were subdivided into three groups.
# A physiological solution of zytisin (a H-cholino-ceptive antagonist of the brain) was injected with a dose of 1 mg/kg body weight into the peritoneal cavity 30 minutes prior to the test of the animals of the first group (ten rats).
# Biologically active serum was administered in a dose of 100 mg/kg body weight to the animals of the second group (ten rats) and 30 minutes later a zytisin solution was administered with a dose of 1 mg/kg body weight.
# The third animal group (control—ten rats) received a 1 ml injection of a physiological salt solution.
# The complex behaviour of the animals was tested according to above-indicated method 48 hours after the injection of the indicated substances.
smiles,measurement,setting,value
O=c1cccc2n1C[C@@H]1CNC[C@H]2C1 [zytisin],slowing of the “escape reaction” in comparison to control animals,48 hours after zytisin 1 mg/kg,3 fold
same,Latency period for the reaction of rats to the situation,"after 48 h, zytisin 1 mg/kg, serum 100 mg/kg 30 minutes before zytisin, control 13.33 ± 0.58",40.0 ± 14 s

# — US20070110817A1, “Biological active blood serum obtained by electrostimulation” (Owen Holding Ltd., priority 2004, published 2007)
